Converted amounts (≈) assume the structure as drawn.
Key:
Type in all cases: functional
Morganella morganii [1] = assay: Antibacterial activity against ceftazidime-susceptible Morganella morganii assessed as susceptible isolates by CLSI M7-A7 broth microdilution method
Staphylococcus aureus [2] = assay: Antibacterial activity against coagulase-negative and oxacillin-susceptible Staphylococcus aureus assessed as resistant isolates by CLSI M7-A7 broth microdilution method
Enterococcus faecalis [3] = assay: Antibacterial activity against vancomycin-susceptible Enterococcus faecalis by CLSI M7-A7 broth microdilution method
Klebsiella pneumoniae [4] = assay: Antibacterial activity against ceftazidime-susceptible Klebsiella pneumoniae assessed as resistant isolates by CLSI M7-A7 broth microdilution method
Klebsiella pneumoniae [5] = assay: Antibacterial activity against ceftazidime-nonsusceptible Klebsiella pneumoniae assessed as susceptible isolates by CLSI M7-A7 broth microdilution method
Haemophilus influenzae [6] = assay: Antibacterial activity against beta lactamase-negative Haemophilus influenzae assessed as susceptible isolates by CLSI M7-A7 broth microdilution method
Streptococcus pyogenes [7] = assay: Antibacterial activity against erythromycin-nonsusceptible Streptococcus pyogenes assessed as susceptible isolates by CLSI M7-A7 broth microdilution method
Citrobacter freundii [8] = assay: Antibacterial activity against ceftazidime-nonsusceptible Citrobacter freundii by CLSI M7-A7 broth microdilution method
Serratia marcescens [9] = assay: Antibacterial activity against ceftazidime-susceptible Serratia marcescens assessed as susceptible isolates by CLSI M7-A7 broth microdilution method
Haemophilus influenzae [10] = assay: Antibacterial activity against beta lactamase-positive Haemophilus influenzae assessed as susceptible isolates by CLSI M7-A7 broth microdilution method
Streptococcus agalactiae [11] = assay: Antibacterial activity against erythromycin-nonsusceptible Streptococcus agalactiae assessed as susceptible isolates by CLSI M7-A7 broth microdilution method
Serratia marcescens [12] = assay: Antibacterial activity against ceftazidime-susceptible Serratia marcescens by CLSI M7-A7 broth microdilution method
Staphylococcus aureus [13] = assay: Antibacterial activity against methicillin-susceptible Staphylococcus aureus assessed as susceptible isolates by CLSI M7-A7 broth microdilution method
Acinetobacter [14] = assay: Antibacterial activity against multidrug-resistant Acinetobacter assessed as susceptible isolates by CLSI M7-A7 broth microdilution method
Streptococcus viridans [15] = assay: Antibacterial activity against penicillin-susceptible Streptococcus viridans assessed as susceptible isolates by CLSI M7-A7 broth microdilution method
Streptococcus agalactiae [16] = assay: Antibacterial activity against erythromycin-susceptible Streptococcus agalactiae by CLSI M7-A7 broth microdilution method
Acinetobacter [17] = assay: Antibacterial activity against multidrug-resistant Acinetobacter by CLSI M7-A7 broth microdilution method
Staphylococcus aureus [18] = assay: Antibacterial activity against coagulase-negative and oxacillin-resistant Staphylococcus aureus by CLSI M7-A7 broth microdilution method
Providencia sp. [19] = assay: Antibacterial activity against ceftazidime-susceptible Providencia sp. assessed as susceptible isolates by CLSI M7-A7 broth microdilution method
Proteus mirabilis = assay: Antibacterial activity against ceftazidime-susceptible Proteus mirabilis by CLSI M7-A7 broth microdilution method
Acinetobacter [20] = assay: Antibacterial activity against imipenem-susceptible Acinetobacter by CLSI M7-A7 broth microdilution method
Streptococcus agalactiae [21] = assay: Antibacterial activity against erythromycin-susceptible Streptococcus agalactiae assessed as susceptible isolates by CLSI M7-A7 broth microdilution method
Staphylococcus aureus [22] = assay: Antibacterial activity against methicillin-susceptible Staphylococcus aureus assessed as resistant isolates by CLSI M7-A7 broth microdilution method
Enterobacteriaceae [23] = assay: Antibacterial activity against ceftazidime-nonsusceptible Enterobacteriaceae assessed as susceptible isolates by CLSI M7-A7 broth microdilution method
Citrobacter freundii [24] = assay: Antibacterial activity against ceftazidime-susceptible Citrobacter freundii assessed as resistant isolates by CLSI M7-A7 broth microdilution method
Pasteurella multocida = assay: Antibacterial activity against Pasteurella multocida assessed as susceptible isolates by CLSI M7-A7 broth microdilution method
Citrobacter freundii [25] = assay: Antibacterial activity against ceftazidime-susceptible Citrobacter freundii assessed as susceptible isolates by CLSI M7-A7 broth microdilution method
Serratia marcescens [26] = assay: Antibacterial activity against ceftazidime-susceptible Serratia marcescens assessed as resistant isolates by CLSI M7-A7 broth microdilution method
Citrobacter freundii [27] = assay: Antibacterial activity against ceftazidime-nonsusceptible Citrobacter freundii assessed as resistant isolates by CLSI M7-A7 broth microdilution method
Streptococcus pyogenes [28] = assay: Antibacterial activity against erythromycin-susceptible Streptococcus pyogenes assessed as susceptible isolates by CLSI M7-A7 broth microdilution method
Enterobacter cloacae = assay: Antibacterial activity against ceftazidime-nonsusceptible Enterobacter cloacae assessed as susceptible isolates by CLSI M7-A7 broth microdilution method
Escherichia coli [29] = assay: Antibacterial activity against ceftazidime-nonsusceptible Escherichia coli by CLSI M7-A7 broth microdilution method
Providencia sp. [30] = assay: Antibacterial activity against ceftazidime-susceptible Providencia sp. assessed as resistant isolates by CLSI M7-A7 broth microdilution method
Streptococcus viridans [31] = assay: Antibacterial activity against penicillin-susceptible Streptococcus viridans assessed as resistant isolates by CLSI M7-A7 broth microdilution method
Staphylococcus aureus [32] = assay: Antibacterial activity against methicillin-susceptible Staphylococcus aureus by CLSI M7-A7 broth microdilution method
Enterobacteriaceae [33] = assay: Antibacterial activity against ceftazidime-susceptible Enterobacteriaceae assessed as resistant isolates by CLSI M7-A7 broth microdilution method
Escherichia coli [34] = assay: Antibacterial activity against ceftazidime-susceptible Escherichia coli assessed as resistant isolates by CLSI M7-A7 broth microdilution method
Citrobacter freundii [35] = assay: Antibacterial activity against ceftazidime-susceptible Citrobacter freundii by CLSI M7-A7 broth microdilution method
Citrobacter freundii [36] = assay: Antibacterial activity against ceftazidime-nonsusceptible Citrobacter freundii assessed as susceptible isolates by CLSI M7-A7 broth microdilution method
Enterococcus faecalis [37] = assay: Antibacterial activity against vancomycin-resistant Enterococcus faecalis by CLSI M7-A7 broth microdilution method
Morganella morganii [38] = assay: Antibacterial activity against ceftazidime-susceptible Morganella morganii assessed as resistant isolates by CLSI M7-A7 broth microdilution method
Moraxella catarrhalis = assay: Antibacterial activity against beta lactamase-positive Moraxella catarrhalis by CLSI M7-A7 broth microdilution method
Staphylococcus aureus [39] = assay: Antibacterial activity against coagulase-negative and oxacillin-susceptible Staphylococcus aureus by CLSI M7-A7 broth microdilution method
Staphylococcus aureus [40] = assay: Antibacterial activity against coagulase-negative and oxacillin-resistant Staphylococcus aureus assessed as susceptible isolates by CLSI M7-A7 broth microdilution method
Acinetobacter [41] = assay: Antibacterial activity against multidrug-resistant Acinetobacter assessed as resistant isolates by CLSI M7-A7 broth microdilution method

C[C@H]1COc2c(N3CCN(C)CC3)c(F)cc3c(=O)c(C(=O)O)cn1c23.C[C@H]1COc2c(N3CCN(C)CC3)c(F)cc3c(=O)c(C(=O)O)cn1c23.O [LEVOFLOXACIN]
Activity (Morganella morganii [1]): 76.5% | Activity (Staphylococcus aureus [2]): 17.9% | MIC50 (Enterococcus faecalis [3]): 1 µg/mL | MIC90 (Enterococcus faecalis [3]): > 16 µg/mL | Activity (Klebsiella pneumoniae [4]): 1.4% | Activity (Klebsiella pneumoniae [5]): 37.9% | Activity (Haemophilus influenzae [6]): 100% | Activity (Streptococcus pyogenes [7]): 100% | MIC50 (Citrobacter freundii [8]): 0.25 µg/mL | MIC90 (Citrobacter freundii [8]): 16 µg/mL | Activity (Serratia marcescens [9]): 98.3% | Activity (Haemophilus influenzae [10]): 100% | Activity (Streptococcus agalactiae [11]): 97.6% | MIC50 (Serratia marcescens [12]): 0.12 µg/mL | MIC90 (Serratia marcescens [12]): 1 µg/mL | Activity (Staphylococcus aureus [13]): 83.9% | Activity (Acinetobacter [14]): 6.3% | Activity (Streptococcus viridans [15]): 100% | MIC50 (Streptococcus agalactiae [16]): 0.5 µg/mL | MIC90 (Streptococcus agalactiae [16]): 1 µg/mL | MIC50 (Acinetobacter [17]): 16 µg/mL | MIC50 (Staphylococcus aureus [18]): 8 µg/mL | MIC90 (Staphylococcus aureus [18]): > 16 µg/mL | Activity (Providencia sp. [19]): 66.7% | MIC50 (Proteus mirabilis): 0.06 µg/mL | MIC90 (Proteus mirabilis): 16 µg/mL | MIC50 (Acinetobacter [20]): 0.5 µg/mL | MIC90 (Acinetobacter [20]): > 16 µg/mL | Activity (Streptococcus agalactiae [21]): 100% | Activity (Staphylococcus aureus [22]): 15.2% | Activity (Enterobacteriaceae [23]): 41.8% | Activity (Citrobacter freundii [24]): 0% | Activity (Pasteurella multocida): 95.5% | Activity (Citrobacter freundii [25]): 98% | Activity (Serratia marcescens [26]): 1.7% | Activity (Citrobacter freundii [27]): 24.2% | Activity (Streptococcus pyogenes [28]): 100% | Activity (Enterobacter cloacae): 62.9% | MIC50 (Escherichia coli [29]): > 16 µg/mL | MIC90 (Escherichia coli [29]): > 16 µg/mL | Activity (Providencia sp. [30]): 25.9% | Activity (Streptococcus viridans [31]): 0% | MIC50 (Staphylococcus aureus [32]): 0.12 µg/mL | MIC90 (Staphylococcus aureus [32]): 16 µg/mL | Activity (Enterobacteriaceae [33]): 9.4% | Activity (Escherichia coli [34]): 13.6% | MIC (Citrobacter freundii [35]): ≤ 0.03 µg/mL | MIC50 (Citrobacter freundii [35]): ≤ 0.03 µg/mL | MIC90 (Citrobacter freundii [35]): 1 µg/mL | Activity (Citrobacter freundii [36]): 72.7% | MIC50 (Enterococcus faecalis [37]): > 16 µg/mL | Activity (Morganella morganii [38]): 20.6% | MIC (Moraxella catarrhalis): ≤ 0.03 µg/mL | MIC50 (Moraxella catarrhalis): ≤ 0.03 µg/mL | MIC90 (Moraxella catarrhalis): ≤ 0.03 µg/mL | MIC50 (Staphylococcus aureus [39]): 0.12 µg/mL | MIC90 (Staphylococcus aureus [39]): 8 µg/mL | Activity (Staphylococcus aureus [40]): 21.7% | Activity (Acinetobacter [41]): 87.5%

CC(C)(O/N=C(\C(=O)N[C@@H]1C(=O)N2C(C(=O)[O-])=C(C[n+]3ccccc3)CS[C@H]12)c1csc(N)n1)C(=O)O [CEFTAZIDIME]
Activity (Morganella morganii [1]): 100% | Activity (Staphylococcus aureus [2]): 0.5% | MIC (Enterococcus faecalis [3]): > 32 µg/mL | MIC50 (Enterococcus faecalis [3]): > 32 µg/mL | MIC90 (Enterococcus faecalis [3]): > 32 µg/mL | Activity (Klebsiella pneumoniae [4]): 0% | Activity (Klebsiella pneumoniae [5]): 0% | Activity (Haemophilus influenzae [6]): 98.5% | MIC50 (Citrobacter freundii [8]): > 32 µg/mL | MIC90 (Citrobacter freundii [8]): > 32 µg/mL | Activity (Serratia marcescens [9]): 100% | Activity (Haemophilus influenzae [10]): 98% | MIC50 (Serratia marcescens [12]): 0.12 µg/mL (≈ 0.22 µM) | MIC90 (Serratia marcescens [12]): 1 µg/mL (≈ 1.83 µM) | Activity (Staphylococcus aureus [13]): 92% | Activity (Acinetobacter [14]): 0% | MIC (Streptococcus agalactiae [16]): ≤ 1 µg/mL | MIC50 (Streptococcus agalactiae [16]): ≤ 1 µg/mL | MIC90 (Streptococcus agalactiae [16]): ≤ 1 µg/mL | MIC50 (Acinetobacter [17]): > 32 µg/mL | MIC90 (Acinetobacter [17]): > 32 µg/mL | MIC50 (Staphylococcus aureus [18]): 32 µg/mL (≈ 58.5 µM) | MIC90 (Staphylococcus aureus [18]): > 32 µg/mL | Activity (Providencia sp. [19]): 100% | MIC50 (Proteus mirabilis): 0.06 µg/mL (≈ 0.11 µM) | MIC90 (Proteus mirabilis): 0.12 µg/mL (≈ 0.22 µM) | MIC50 (Acinetobacter [20]): 4 µg/mL (≈ 7.32 µM) | MIC90 (Acinetobacter [20]): > 32 µg/mL | Activity (Staphylococcus aureus [22]): 1.7% | Activity (Enterobacteriaceae [23]): 0% | Activity (Citrobacter freundii [24]): 0% | Activity (Citrobacter freundii [25]): 100% | Activity (Serratia marcescens [26]): 0% | Activity (Citrobacter freundii [27]): 97% | Activity (Enterobacter cloacae): 0% | MIC50 (Escherichia coli [29]): > 32 µg/mL | MIC90 (Escherichia coli [29]): > 32 µg/mL | Activity (Providencia sp. [30]): 0% | MIC50 (Staphylococcus aureus [32]): 8 µg/mL (≈ 14.6 µM) | MIC90 (Staphylococcus aureus [32]): 8 µg/mL (≈ 14.6 µM) | Activity (Enterobacteriaceae [33]): 0% | Activity (Escherichia coli [34]): 0% | MIC50 (Citrobacter freundii [35]): 0.25 µg/mL (≈ 0.457 µM) | MIC90 (Citrobacter freundii [35]): 1 µg/mL (≈ 1.83 µM) | Activity (Citrobacter freundii [36]): 0% | MIC50 (Enterococcus faecalis [37]): > 32 µg/mL | MIC90 (Enterococcus faecalis [37]): > 32 µg/mL | Activity (Morganella morganii [38]): 0% | MIC (Moraxella catarrhalis): ≤ 1 µg/mL | MIC50 (Moraxella catarrhalis): ≤ 1 µg/mL | MIC90 (Moraxella catarrhalis): ≤ 1 µg/mL | MIC50 (Staphylococcus aureus [39]): 4 µg/mL (≈ 7.32 µM) | MIC90 (Staphylococcus aureus [39]): 8 µg/mL (≈ 14.6 µM) | Activity (Staphylococcus aureus [40]): 10% | Activity (Acinetobacter [41]): 93.8%
